Test results published in ChEMBL document CHEMBL5247598 (Eur J Med Chem, 2022).
Active and inactive are the calls of the source. The rule behind the calls is not given here.

Assays:
HCT-8 [1] = assay: Antiproliferative activity against human HCT-8 cells assessed as inhibition of cell growth at 50 uM incubated for 48 hrs by MTT assay; assay type: functional, cell-based
MCF7 [2] = assay: Antiproliferative activity against human MCF7 cells assessed as reduction in cell viability incubated for 48 hrs by MTT assay; assay type: functional, cell-based; details: MCF7, 48 h
HCT-8 [3] = assay: Antiproliferative activity against human Taxol resistant HCT-8 cells assessed as inhibition of cell growth at 50 uM incubated for 48 hrs by MTT assay; assay type: functional, cell-based
HEK-293T [4] = assay: Cytotoxicity against human HEK293T cells assessed as inhibition of cell growth at 50 uM incubated for 48 hrs by MTT assay; assay type: toxicity, cell-based
HEK-293T [5] = assay: Cytotoxicity against human HEK293T cells assessed as cell survival rate at 10 uM incubated for 48 hrs by MTT assay; assay type: toxicity, cell-based
A549 = assay: Antiproliferative activity against human A549 cells assessed as inhibition of cell growth at 50 uM incubated for 48 hrs by MTT assay; assay type: functional, cell-based
A549/TR = assay: Antiproliferative activity against human Taxol resistant A549 cells assessed as inhibition of cell growth at 50 uM incubated for 48 hrs by MTT assay; assay type: functional, cell-based
NCI/ADR-RES [6] = assay: Reversal fold, ratio of doxorubicin IC50 to doxorubicin IC50 in presence of 10 uM test compound for reversal of P-gp-mediated multidrug resistance in human NCI-ADR-RES cells incubated for 48 hrs by MTT assay; assay type: functional
MCF7 [7] = assay: Antiproliferative activity against human MCF7 cells assessed as inhibition of cell growth at 50 uM incubated for 48 hrs by MTT assay; assay type: functional, cell-based
NCI/ADR-RES [8] = assay: Reversal of P-gp-mediated multidrug resistance in human NCI-ADR-RES cells assessed as potentiation of doxorubicin-induced cytotoxicity incubated for 48 hrs by MTT assay; assay type: functional, cell-based
NCI/ADR-RES [9] = assay: Antiproliferative activity against human multidrug resistant NCI-ADR-RES cells assessed as inhibition of cell growth at 50 uM incubated for 48 hrs by MTT assay; assay type: functional, cell-based
NCI/ADR-RES [10] = assay: Antiproliferative activity against human multidrug resistant NCI-ADR-RES cells overexpressing P-gp assessed as reduction in cell viability incubated for 48 hrs by MTT assay; assay type: functional, cell-based
[11] = Cytotoxicity against mouse MPC-5 cells assessed as inhibition of cell growth at 50 uM incubated for 48 hrs by MTT assay; assay type: toxicity, cell-based; details: mpc-5, 48 h
[12] = Cytotoxicity against human HEK293T cells assessed as reduction in cell viability incubated for 48 hrs by MTT assay; assay type: toxicity, cell-based, HEK-293T
L02 = assay: Cytotoxicity against human L02 cells assessed as inhibition of cell growth at 50 uM incubated for 48 hrs by MTT assay; assay type: toxicity, cell-based; details: l02, 48 h
P-gp = assay: Therapeutic index, ratio of IC50 for cytotoxicity against human HEK293T cells to EC50 for reversal of P-gp-mediated multidrug resistance in human NCI-ADR-RES cells; assay type: toxicity, cell-based; details: read-out: Ratio IC50/EC50
NCI/ADR-RES [13] = assay: Induction of apoptosis in human NCI-ADR-RES cells assessed as late apoptotic cells at 8 uM incubated for 24 hrs by Annexin V-FITC and DAPI staining based flow cytometry (Rvb= 0.66 %); assay type: functional
NCI/ADR-RES [14] = assay: Induction of apoptosis in human NCI-ADR-RES cells assessed as viable cells at 8 uM incubated for 24 hrs by Annexin V-FITC and DAPI staining based flow cytometry (Rvb= 97.9 %); assay type: functional; details: read-out: Activity
NCI-ADR-RES [15] = assay: Activation of PI3K/AKT signaling pathway in human NCI-ADR-RES cells assessed as increase in AKT phosphorylation at 3 uM incubated for 24 to 48 hrs by Western blot analysis; assay type: cell-based; details: filed as activator, time 24-48 hrs
NCI/ADR-RES [16] = assay: Induction of apoptosis in human NCI-ADR-RES cells assessed as early apoptotic cells at 8 uM incubated for 24 hrs by Annexin V-FITC and DAPI staining based flow cytometry (Rvb= 0.89 %); assay type: functional
NCI/ADR-RES [17] = assay: Induction of apoptosis in human NCI-ADR-RES cells assessed as viable cells at 8 uM incubated for 48 hrs by Annexin V-FITC and DAPI staining based flow cytometry (Rvb= 97.9 %); assay type: functional; details: read-out: Activity
NCI/ADR-RES [18] = assay: Induction of apoptosis in human NCI-ADR-RES cells assessed as late apoptotic cells at 8 uM incubated for 48 hrs by Annexin V-FITC and DAPI staining based flow cytometry (Rvb= 0.66 %); assay type: functional
NCI-ADR-RES [19] = assay: Activation of PI3K/AKT signaling pathway in human NCI-ADR-RES cells assessed as increase in PI3K phosphorylation at 3 uM incubated for 24 to 48 hrs by Western blot analysis; assay type: cell-based; details: filed as activator, time 24-48 hrs
NCI/ADR-RES [20] = assay: Induction of apoptosis in human NCI-ADR-RES cells assessed as early apoptotic cells at 8 uM incubated for 48 hrs by Annexin V-FITC and DAPI staining based flow cytometry (Rvb= 0.89 %); assay type: functional
NCI/ADR-RES [21] = assay: Induction of apoptosis in human NCI-ADR-RES cells assessed as necrotic cells at 8 uM incubated for 24 hrs by Annexin V-FITC and DAPI staining based flow cytometry (Rvb= 0.55 %); assay type: functional
NCI/ADR-RES [22] = assay: Induction of apoptosis in human NCI-ADR-RES cells assessed as necrotic cells at 8 uM incubated for 48 hrs by Annexin V-FITC and DAPI staining based flow cytometry (Rvb= 0.55 %); assay type: functional

SMILES: COc1cc2c(cc1OC)CN(CCc1ccc(NC(=O)c3cc(OC)c(OC)cc3NC(=O)c3cnc4ccccc4c3)cc1)CC2
- Activity (HCT-8 [1]): Active
- IC50 (MCF7 [2]; read-out: IC50): 8.11 µM
- Activity (HCT-8 [3]): Active
- Activity (HEK-293T [4]): Toxic
- Activity (HEK-293T [5]): Toxic
- Activity (A549): Active
- Activity (A549/TR): Active
- Ratio IC50 (NCI/ADR-RES [6]): 47.2
- Activity (MCF7 [7]): Active
- EC50 (NCI/ADR-RES [8]): 0.0187 µM
- Activity (NCI/ADR-RES [9]): Active
- IC50 (NCI/ADR-RES [10]): 98.5 µM
- Activity [11]: Toxic
- IC50 at 48 h [12]: 5.22 µM
- Activity (L02): Toxic
- selectivity ratio (P-gp): 278

SMILES: COc1cccc2c1C(=O)c1c(O)c3c(c(O)c1C2=O)C[C@@](O)(C(=O)CO)C[C@@H]3O[C@H]1C[C@H](N)[C@H](O)[C@H](C)O1 [DOXORUBICIN]
- Activity (NCI/ADR-RES [13]): 0.74%
- viability at 8 µM (NCI/ADR-RES [14]): 98.3%
- Activity (NCI-ADR-RES [15]): Active
- IC50 (NCI/ADR-RES [10]): 58.5 µM
- Activity (NCI/ADR-RES [16]): 0.64%
- viability at 8 µM (NCI/ADR-RES [17]): 92.8%
- Activity (NCI/ADR-RES [18]): 4.03%
- Activity (NCI-ADR-RES [19]): Active
- Activity (NCI/ADR-RES [20]): 1.78%
- Activity (NCI/ADR-RES [21]): 0.39%
- Activity (NCI/ADR-RES [22]): 1.47%

SMILES: COc1ccc(CCN(C)CCCC(C#N)(c2ccc(OC)c(OC)c2)C(C)C)cc1OC (configuration not stated)
- Activity (HCT-8 [1]): inactive
- IC50 (MCF7 [2]): 87.8 µM
- Activity (HCT-8 [3]): inactive
- Activity (A549): inactive
- Activity (A549/TR): inactive
- Activity (MCF7 [7]): inactive
- EC50 (NCI/ADR-RES [8]): 0.322 µM
- Activity (NCI/ADR-RES [9]): inactive
- IC50 (NCI/ADR-RES [10]): > 100 µM
- IC50 at 48 h [12]: 32 µM
